Patent publication US8106055B2, “Substituted amide compounds” (Gruenenthal GmbH, priority 2007, dated 2012)
Like-named read-outs stand apart in the source and are kept apart here.

What was measured:
[1] = biological target: T1, bradykinin 1 receptor (B1R) of the rat (Rattus norvegicus, UniProt P97583); assay: Functional investigation on the rat bradykinin 1 receptor (B1R), Ca2+ FLIPR assay in CHO K1 rB1R cells; format: cell-based
T1 construct: expressed in transfected cells; host or cells: CHO K1 cells
T1 sequence (P97583 1-337): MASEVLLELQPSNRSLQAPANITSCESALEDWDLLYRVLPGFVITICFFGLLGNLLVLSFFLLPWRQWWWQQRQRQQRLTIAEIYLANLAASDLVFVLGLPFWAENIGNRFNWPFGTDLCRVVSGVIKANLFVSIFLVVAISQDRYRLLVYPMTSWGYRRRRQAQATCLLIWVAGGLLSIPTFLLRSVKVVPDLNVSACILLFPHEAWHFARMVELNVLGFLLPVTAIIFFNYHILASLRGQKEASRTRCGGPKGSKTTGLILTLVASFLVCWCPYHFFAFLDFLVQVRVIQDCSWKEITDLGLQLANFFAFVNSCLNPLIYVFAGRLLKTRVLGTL
Summary of the method: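 Stably transfected CHO K1 cells loaded with Fluo-4; FLIPR Ca2+ fluorescence peak (ex 488/em 540 nm). Compound added first (agonism vs Lys-Des-Arg9-bradykinin ≥50 nM human, Des-Arg9-bradykinin 10 μM rat), then after 10-20 min agonist at EC80; antagonism as % inhibition, IC50 from concentration series, n=2-3, N≥2.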

[2] = biological target: T2, serotonin (5-HT) reuptake (Rattus norvegicus, UniProt P31652); assay: Inhibition of serotonin (5HT) reuptake in synaptosomes from rat brain; format: biochemical; details: test concentration of 10 μM; read-out: 5-HT (inhibition of reuptake of serotonin, % inhibition)
T2 construct: synaptosomes are freshly isolated from areas of the rat brain; from tissue; host or cells: rat brain synaptosomes (P2 fraction)
Summary of the method: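 Freshly isolated rat brain synaptosomes (P2 fraction) used for 5-HT reuptake. Test compound at 10 μM, activity given as % inhibition.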

[3] = CHO-K1, B1R antagonism rat, test substance 10 μM, Ca2+ FLIPR, CHO K1 rB1R cells, read-out: B1R Ant. r [10 μM] % Inhibition
[4] = CHO-K1, read-out: B1R Ant. r [10 μM] % Inhibition

T2 sequence (P31652 whole entry): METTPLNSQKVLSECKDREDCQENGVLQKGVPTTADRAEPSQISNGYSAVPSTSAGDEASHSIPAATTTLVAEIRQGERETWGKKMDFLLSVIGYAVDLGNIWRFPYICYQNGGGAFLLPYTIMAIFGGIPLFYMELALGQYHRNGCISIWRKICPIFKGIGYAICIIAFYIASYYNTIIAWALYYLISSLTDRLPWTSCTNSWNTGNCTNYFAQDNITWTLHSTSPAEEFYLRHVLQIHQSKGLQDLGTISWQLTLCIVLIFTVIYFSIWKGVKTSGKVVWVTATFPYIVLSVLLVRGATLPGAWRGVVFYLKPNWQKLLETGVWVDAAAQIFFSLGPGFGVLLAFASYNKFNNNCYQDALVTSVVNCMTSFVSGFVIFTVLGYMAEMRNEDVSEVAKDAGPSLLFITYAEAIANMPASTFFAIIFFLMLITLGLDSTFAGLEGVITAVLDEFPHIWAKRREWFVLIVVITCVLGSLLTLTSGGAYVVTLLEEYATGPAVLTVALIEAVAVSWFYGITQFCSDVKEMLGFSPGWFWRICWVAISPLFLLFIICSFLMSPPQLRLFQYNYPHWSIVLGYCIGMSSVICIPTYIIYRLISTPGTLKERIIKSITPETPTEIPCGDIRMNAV

Structure (SMILES)	inhibition at 10 µM [1, 3] [%]	inhibition at 10 µM [2] [%]	inhibition at 10 µM [1, 4] [%]
COc1cc(C)c(S(=O)(=O)N2CCC(OCC(=O)NC3CCC(C(c4cccs4)N(C)C)CC3)CC2)c(C)c1C (stereo not drawn) [Example 1, N-(4-((dimethylamino)(thiophen-2-yl)methyl)cyclohexyl)-2-(1-(4-methoxy-2,3,6-trimethylphenylsulfonyl)piperidin-4-yloxy)acetamide]	-5	94	
Cc1ccc(S(=O)(=O)N(C)CCOCC(=O)NCC2CCC(C(c3cccs3)N(C)C)CC2)cc1 (stereo not drawn) [Example 4, N-((4-((dimethylamino)(thiophen-2-yl)methyl)cyclohexyl)methyl)-2-(2-(N,4-dimethylphenylsulfonamido)ethoxy)acetamide]	18	92	
COc1cc(C)c(S(=O)(=O)N2CCC(CCOCC(=O)NC3CCC(C(c4cccs4)N(C)C)CC3)CC2)c(C)c1C (stereo not drawn) [Example 5, N-(4-((dimethylamino)(thiophen-2-yl)methyl)cyclohexyl)-2-(2-(1-(4-methoxy-2,3,6-trimethylphenylsulfonyl)piperidin-4-yl)ethoxy)acetamide]	-3	87	
CN(C)C(c1ccccc1)C1CCC(NC(=O)COCCN(C)S(=O)(=O)c2c(Cl)cc(Cl)cc2Cl)CC1 (stereo not drawn) [Example 34, N-(4-((dimethylamino)(phenyl)methyl)cyclohexyl)-2-(2-(2,4,6-trichloro-N-methylphenylsulfonamido)ethoxy)acetamide]	24	79	
COc1cc(C)c(S(=O)(=O)N(C)CCOCC(=O)NCC2CCC(C(c3cccs3)N(C)C)CC2)c(C)c1C (stereo not drawn) [Example 35, N-((4-((dimethylamino)(thiophen-2-yl)methyl)cyclohexyl)methyl)-2-(2-(4-methoxy-N,2,3,6-tetramethylphenylsulfonamido)ethoxy)acetamide]	0	84	
CN(C)C(c1cccs1)C1CCC(CNC(=O)COC2CCN(S(=O)(=O)c3ccccc3)C2)CC1 (stereo not drawn) [Example 36, N-((4-((dimethylamino)(thiophen-2-yl)methyl)cyclohexyl)methyl)-2-(1-(phenylsulfonyl)pyrrolidin-3-yloxy)acetamide]	3	102	
CN(C)C(c1cccs1)C1CCC(CCNC(=O)COCCN(C)S(=O)(=O)c2ccc(Cl)cc2)CC1 (stereo not drawn) [Example 37, 2-(2-(4-chloro-N-methylphenylsulfonamido)ethoxy)-N-(2-(4-((dimethylamino)(thiophen-2-yl)methyl)cyclohexyl)ethyl)acetamide]	21	90	
COc1ccc(S(=O)(=O)N2Cc3ccccc3CC2COCC(=O)NC2CCC(C(c3ccccc3)N(C)C)CC2)cc1 (stereo not drawn) [Example 38, N-(4-((dimethylamino)(phenyl)methyl)cyclohexyl)-2-((2-(4-methoxyphenylsulfonyl)-1,2,3,4-tetrahydroisoquinolin-3-yl)methoxy)acetamide]	46	61	
CN(C)C(c1ccccc1)C1CCC(NC(=O)COC2CCCCC2N(C)S(=O)(=O)c2ccc(Cl)c(Cl)c2)CC1 (stereo not drawn) [Example 39, 2-(2-(3,4-dichloro-N-methylphenylsulfonamido)cyclohexyloxy)-N-(4-((dimethylamino)(phenyl)methyl)cyclohexyl)acetamide]	-8	91	
CN(C)C(c1cccc(F)c1)C1CCC(CCNC(=O)COCCN(C)S(=O)(=O)c2c(Cl)cccc2Cl)CC1 (stereo not drawn) [Example 41, 2-(2-(2,6-dichloro-N-methylphenylsulfonamido)ethoxy)-N-(2-(4-((dimethylamino)(3-fluorophenyl)methyl)cyclohexyl)ethyl)acetamide]	54	79	
CN(C)C(c1cccs1)C1CCC(NC(=O)COC2CCCN(S(=O)(=O)c3ccccc3)C2)CC1 (stereo not drawn) [Example 42, N-(4-((dimethylamino)(thiophen-2-yl)methyl)cyclohexyl)-2-(1-(phenylsulfonyl)piperidin-3-yloxy)acetamide]		91	-17
COc1cc(C)c(S(=O)(=O)N2CCC(OCC(=O)NC3CCC(C(c4cccs4)N(C)C)CC3)C2)c(C)c1C (stereo not drawn) [Example 43, N-(4-((dimethylamino)(thiophen-2-yl)methyl)cyclohexyl)-2-(1-(4-methoxy-2,3,6-trimethylphenylsulfonyl)pyrrolidin-3-yloxy)acetamide]	21	90	
COc1cc(C)c(S(=O)(=O)N2CCC(OCC(=O)NCC3CCC(C(c4ccccc4)N(C)C)CC3)C2)c(C)c1C (stereo not drawn) [Example 44, N-((4-((dimethylamino)(phenyl)methyl)cyclohexyl)methyl)-2-(1-(4-methoxy-2,3,6-trimethylphenylsulfonyl)pyrrolidin-3-yloxy)acetamide]	22	94	
COc1ccc(S(=O)(=O)N2CCCCC2COCC(=O)NCC2CCC(C(c3cccs3)N(C)C)CC2)cc1 (stereo not drawn) [Example 45, N-((4-((dimethylamino)(thiophen-2-yl)methyl)cyclohexyl)methyl)-2-((1-(4-methoxyphenylsulfonyl)piperidin-2-yl)methoxy)acetamide]	65	91	
COc1ccc(S(=O)(=O)N2CCCCC2CCOCC(=O)NCCC2CCC(C(c3cccs3)N(C)C)CC2)cc1 (stereo not drawn) [Example 46, N-(2-(4-((dimethylamino)(thiophen-2-yl)methyl)cyclohexyl)ethyl)-2-(2-(1-(4-methoxyphenylsulfonyl)piperidin-2-yl)ethoxy)acetamide]	77	96	
COc1ccc(S(=O)(=O)N2Cc3ccccc3CC2COCC(=O)NC2CCC(C(c3cccs3)N(C)C)CC2)cc1 (stereo not drawn) [Example 47, N-(4-((dimethylamino)(thiophen-2-yl)methyl)cyclohexyl)-2-((2-(4-methoxyphenylsulfonyl)-1,2,3,4-tetrahydroisoquinolin-3-yl)methoxy)acetamide]	36	98	
COc1ccc(S(=O)(=O)N2Cc3ccccc3CC2COCC(=O)NCCC2CCC(C(c3cccs3)N(C)C)CC2)cc1 (stereo not drawn) [Example 48, N-(2-(4-((dimethylamino)(thiophen-2-yl)methyl)cyclohexyl)ethyl)-2-((2-(4-methoxyphenylsulfonyl)-1,2,3,4-tetrahydroisoquinolin-3-yl)methoxy)acetamide]	22	101	
COc1ccc(S(=O)(=O)N2CCCCC2COCC(=O)NCC2CCC(C(c3cccs3)N(C)C)CC2)c(OC)c1 (stereo not drawn) [Example 49, 2-((1-(2,4-dimethoxyphenylsulfonyl)piperidin-2-yl)methoxy)-N-((4-((dimethylamino)(thiophen-2-yl)methyl)cyclohexyl)methyl)acetamide]	23	86	
COc1cc(C)c(S(=O)(=O)N(C)CCOCC(=O)NCCC2CCC(C(c3cccs3)N(C)C)CC2)c(C)c1C (stereo not drawn) [Example 52, N-(2-(4-((dimethylamino)(thiophen-2-yl)methyl)cyclohexyl)ethyl)-2-(2-(4-methoxy-N,2,3,6-tetramethylphenylsulfonamido)ethoxy)acetamide]	53	91	
CN(C)C(c1ccccc1)C1CCC(CNC(=O)COCCN(C)S(=O)(=O)c2ccc(OC(F)(F)F)cc2)CC1 (stereo not drawn) [Example 53, N-((4-((dimethylamino)(phenyl)methyl)cyclohexyl)methyl)-2-(2-(N-methyl-4-(trifluoromethoxy)phenylsulfonamido)ethoxy)acetamide]	41	92	
CN(C)C(c1cccs1)C1CCC(CNC(=O)COC2CCN(S(=O)(=O)c3ccc(Cl)cc3)C2)CC1 (stereo not drawn) [Example 54, 2-(1-(4-chlorophenylsulfonyl)pyrrolidin-3-yloxy)-N-((4-((dimethylamino)(thiophen-2-yl)methyl)cyclohexyl)methyl)acetamide]	-20	84	
CN(C)C(c1cccs1)C1CCC(CNC(=O)COCCN(C)S(=O)(=O)c2ccc(Cl)cc2)CC1 (stereo not drawn) [Example 55, 2-(2-(4-chloro-N-methylphenylsulfonamido)ethoxy)-N-((4-((dimethylamino)(thiophen-2-yl)methyl)cyclohexyl)methyl)acetamide]	34	92	
CN(C)C(c1cccs1)C1CCC(CNC(=O)COCCN(C)S(=O)(=O)c2ccc(F)cc2)CC1 (stereo not drawn) [Example 56, N-((4-((dimethylamino)(thiophen-2-yl)methyl)cyclohexyl)methyl)-2-(2-(4-fluoro-N-methylphenylsulfonamido)ethoxy)acetamide]		100	-4
Cc1cc(C)c(S(=O)(=O)N(C)CCOCC(=O)NCC2CCC(C(c3cccs3)N(C)C)CC2)c(C)c1 (stereo not drawn) [Example 57, N-((4-((dimethylamino)(thiophen-2-yl)methyl)cyclohexyl)methyl)-2-(2-(N,2,4,6-tetramethylphenylsulfonamido)ethoxy)acetamide]	35	101	
